The test system of the test is CazF. The test is classed as biochemical. The settings on record: propargyl donor at MT domain; co-substrate acetoacetyl-SNAC (4).

Molecules are shown by their SMILES.

By Km is commonly meant the substrate concentration at which the rate is half of its maximum. For `C#CC[Se+](CC[C@H](N)C(=O)O)C[C@H]1O[C@@H](n2cnc3c(N)ncnc32)[C@H](O)[C@@H]1O` (stereo partly drawn) [compound 2, propargylic Se-adenosyl-L-methionine], the Km turned out to be 43.6 µM.

(Values after publication PMC3779521 (Organic letters, 2013).)
